# Data published in ChEMBL document CHEMBL4000253 (Bioorg Med Chem, 2017).
# Active and inactive are the calls of the source. The calls are words filed in the database; no cut-off is given here.
# How the values were obtained:
# Mushroom tyrosinase [1] = biological target: T1, Mushroom tyrosinase (Agaricus bisporus, UniProt O42713+Q00024+C7FF04+C7FF05); test: Inhibition of mushroom tyrosinase using L-DOPA as substrate assessed as decrease in dopachrome formation preincubated for 10 mins followed by substrate addition by spectrophotometric method
# [2] = biological target: T2, Tyrosinase (Mus musculus) (UniProt P11344); test: Inhibition of tyrosinase in alpha-MSH-stimulated mouse B16F10 cells assessed as residual activity at 10 uM preincubated for 48 hrs followed by L-DOPA addition relative to control
# T2 sequence (whole entry): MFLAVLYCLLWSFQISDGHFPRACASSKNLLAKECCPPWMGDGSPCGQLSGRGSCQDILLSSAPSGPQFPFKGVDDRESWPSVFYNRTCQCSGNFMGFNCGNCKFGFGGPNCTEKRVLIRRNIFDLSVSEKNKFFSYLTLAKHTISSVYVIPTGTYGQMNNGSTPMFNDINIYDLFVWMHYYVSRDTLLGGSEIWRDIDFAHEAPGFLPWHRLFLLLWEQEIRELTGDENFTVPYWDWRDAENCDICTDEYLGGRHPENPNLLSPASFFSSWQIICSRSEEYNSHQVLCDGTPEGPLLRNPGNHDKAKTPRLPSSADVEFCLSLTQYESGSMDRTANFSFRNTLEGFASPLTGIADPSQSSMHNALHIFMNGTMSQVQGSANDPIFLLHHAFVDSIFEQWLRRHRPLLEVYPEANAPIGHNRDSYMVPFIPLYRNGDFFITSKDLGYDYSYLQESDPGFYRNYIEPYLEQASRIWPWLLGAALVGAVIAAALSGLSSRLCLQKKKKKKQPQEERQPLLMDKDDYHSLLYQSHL
# [3] = biological target: T2, Tyrosinase (Mus musculus); test: Inhibition of tyrosinase in alpha-MSH-stimulated mouse B16F10 cells assessed as decrease in melanin content after 48 hrs
# [4] = biological target: T3, Mushroom tyrosinase (Agaricus bisporus) (UniProt O42713+Q00024+C7FF04+C7FF05); test: Uncompetitive inhibition of mushroom tyrosinase using 0.3 to 1 mM L-DOPA as substrate assessed as decrease in dopachrome formation preincubated for 10 mins followed by substrate addition by Lineweaver-Burk plot analysis
# [5] = biological target: T2, Tyrosinase (Mus musculus); test: Inhibition of tyrosinase in alpha-MSH-stimulated mouse B16F10 cells assessed as residual activity at 25 uM preincubated for 48 hrs followed by L-DOPA addition relative to control
# [6] = biological target: T2, Tyrosinase (Mus musculus); test: Inhibition of tyrosinase in alpha-MSH-stimulated mouse B16F10 cells assessed as decrease in melanin content at 10 to 50 uM after 48 hrs
# [7] = biological target: T3, Mushroom tyrosinase (Agaricus bisporus); test: Potency index, ratio of kojic acid IC50 to test compound IC50 for mushroom tyrosinase
# B16-F10 [8] = test: Cytotoxicity against mouse B16F10 cells assessed as decrease in cell viability at >50 uM after 48 hrs by MTT assay; format: cell-based; settings: b16-f10, 48 h
# B16-F10 [9] = test: Cytotoxicity against mouse B16F10 cells assessed as decrease in cell viability at <50 uM after 48 hrs by MTT assay; format: cell-based; settings: b16-f10, 48 h
# [10] = biological target: T2, Tyrosinase (Mus musculus); test: Inhibition of tyrosinase in alpha-MSH-stimulated mouse B16F10 cells assessed as residual activity at 50 uM preincubated for 48 hrs followed by L-DOPA addition relative to control
# [11] = biological target: T2, Tyrosinase (Mus musculus); test: Inhibition of tyrosinase in alpha-MSH-stimulated mouse B16F10 cells preincubated for 48 hrs followed by L-DOPA addition
# [12] = biological target: T2, Tyrosinase (Mus musculus); test: Inhibition of tyrosinase in alpha-MSH-stimulated mouse B16F10 cells at 10 uM preincubated for 48 hrs followed by L-DOPA addition relative to control
# [13] = biological target: T2, Tyrosinase (Mus musculus); test: Inhibition of tyrosinase in alpha-MSH-stimulated mouse B16F10 cells at 25 uM preincubated for 48 hrs followed by L-DOPA addition relative to control
# [14] = biological target: T2, Tyrosinase (Mus musculus); test: Inhibition of tyrosinase in alpha-MSH-stimulated mouse B16F10 cells at 10 to 50 uM preincubated for 48 hrs followed by L-DOPA addition and subsequent incubation in dark measured after 1 hr by zymographic method
# [15] = biological target: T2, Tyrosinase (Mus musculus); test: Inhibition of tyrosinase in alpha-MSH-stimulated mouse B16F10 cells assessed as decrease in melanin content up to 50 uM after 48 hrs
# [16] = biological target: T2, Tyrosinase (Mus musculus); test: Inhibition of tyrosinase in alpha-MSH-stimulated mouse B16F10 cells up to 50 uM preincubated for 48 hrs followed by L-DOPA addition
# Mushroom tyrosinase [17] = biological target: T1, Mushroom tyrosinase; test: Competitive inhibition of mushroom tyrosinase using 0.3 to 1 mM L-DOPA as substrate assessed as decrease in dopachrome formation preincubated for 10 mins followed by substrate addition by Lineweaver-Burk plot analysis
structure (smiles),measurement,setting,value
O=c1oc2cc(O)ccc2cc1-c1cc(Br)cs1,IC50,Mushroom tyrosinase [1],31.8 µM
O=c1oc2cc(O)cc(O)c2cc1-c1cc(Br)cs1,Activity,[2],94.3%
same,inhibition,[3],Dose-dependent effect
same,Kis,[4],0.128 µM
same,Activity,[5],78.5%
same,IC50,Mushroom tyrosinase [1],0.38 µM
same,inhibition,[6],Active
same,Ratio IC50,[7],50
same,Activity,B16-F10 [8],Toxic
same,Activity,B16-F10 [9],Non-Toxic
same,Activity,[10],27.7%
same,inhibition,[11],Dose-dependent effect
O=c1oc2ccc(O)cc2cc1-c1cccs1,IC50,Mushroom tyrosinase [1],> 1000 µM
COc1ccc2oc(=O)c(-c3cccs3)cc2c1,IC50,Mushroom tyrosinase [1],> 1000 µM
O=c1oc2c(O)c(O)ccc2cc1-c1cc(Br)cs1,IC50,Mushroom tyrosinase [1],259.03 µM
O=c1oc2cc(O)cc(O)c2cc1-c1ccc(Br)cc1,inhibition,[3],Dose-dependent effect
same,inhibition,[12],18.1%
same,IC50,Mushroom tyrosinase [1],1.05 µM
same,inhibition,[6],Active
same,inhibition,[13],51.8%
same,inhibition,[14],Active
same,inhibition,[11],Dose-dependent effect
O=c1oc2cc(O)ccc2cc1-c1cccs1,IC50,Mushroom tyrosinase [1],> 1000 µM
O=c1oc2c(O)cccc2cc1-c1cc(Br)cs1,IC50,Mushroom tyrosinase [1],> 1000 µM
O=c1oc2cc(O)cc(O)c2cc1-c1ccsc1,inhibition,[15],inactive
same,IC50,Mushroom tyrosinase [1],0.19 µM
same,inhibition,[16],inactive
O=c1oc2cc(O)cc(O)c2cc1-c1cccs1,inhibition,[15],inactive
same,Ki,Mushroom tyrosinase [17],0.24 µM
same,IC50,Mushroom tyrosinase [1],0.15 µM
same,inhibition,[16],inactive
same,Ratio IC50,[7],120
same,Activity,B16-F10 [8],Toxic
same,Activity,B16-F10 [9],Non-Toxic
COc1ccc2oc(=O)c(-c3cc(Br)cs3)cc2c1,IC50,Mushroom tyrosinase [1],> 1000 µM
O=c1oc2cc(O)cc(O)c2cc1-c1ccccc1,IC50,Mushroom tyrosinase [1],408.37 µM
